From patent US9567318B2, “Substituted pyrimidine compounds and uses thereof” (Memorial Sloan-Kettering Cancer Center, priority 2009, dated 2017)

Tests used:
[1] = system: STAT1 in MDA-MB-468 cells; experiment: Activated STAT1 DNA binding assay (ELISA); format: cell-based, human; conditions: IFNγ 100 ng/ml
Experimental: FIG. 19. YK5 enhances the nuclear content of IFNγ activated STAT1 and potentiates its binding to DNA. MDAMB-468 cells were treated with IFNγ (100 ng/ml) or co-treated with IFNγ (100 ng/ml) and YK5 (10 μM). (a) Activated STAT1 (pTyr701), was determined by immunofluorescent microscopy with a secondary antibody conjugated with FITC. Nuclear staining was performed with DAPI. (b) Activated STAT1 binding to STAT consensus binding site (5′-[…]-3′) was determined by an ELISA-based assay. Activated STAT1, contained in lysates from untreated (white bar), treated with YK5 (light grey bar), IFNγ (dark grey bars) or the combination of IFNγ and YK5 (black bars) cells, and bound to the oligonucleotide, was detected through use of an anti-STAT1 antibody. Assays were performed in the absence or presence of 20 pmol of competitor oligonucleotide that contains either a wild-type or a mutated STAT consensus binding site using IFNγ-treated cells (dark grey bars). […] Results are expressed as mean absorbance values (OD450 nm) with SEM.
Activated STAT1 DNA binding assay. […] After HRP substrate addition, absorbance was read at 450 nm with a reference wavelength of 655 nm (Synergy4, Biotek, Winooski, Vt.). In this assay the absorbance is directly proportional to the quantity of DNA-bound transcription factor present in the sample. […] Results were expressed as mean absorbance values with SEM. […]

[2] = system: SKBr3 HER2+ breast cancer cells; experiment: Growth Inhibition Assay (Alamar blue), SKBr3; format: cell-based, human; conditions: Homo sapiens, SK-BR-3, 72 h
Experimental: The IC50 values listed for some of these compounds illustrate the antiproliferative effects of the subject compounds and were obtained using the Growth Inhibition assays described herein.
Growth Inhibition Assay. Antiproliferative effects of inhibitors were evaluated using the dye Alamar blue. This reagent offers a rapid objective measure of cell viability in cell culture, and it uses the indicator dye resazurin to measure the metabolic capacity of cells, an indicator of cell viability. Briefly, cells were plated on Costar 96-well plates. For attached cells (such as SKBr3, MDA-MB-468, LNCaP, MRCS), 8,000 cells/well were used. For suspension cells (such as MOLM-13, Kasumi-1, OCI-Ly7, PBL), 20,000 cells/well were plated. Cells were allowed to incubate for 24 h at 37° C. before drug treatment. Drugs were added in triplicates at the indicated concentrations, and the plate was incubated for 72 h. Alamar Blue (440 μM) was added, and the plate read 6 h later using the Analyst GT (Fluorescence intensity mode, excitation 530 nm, emission 580 nm, with 560=dichroic mirror). Results were analyzed using the Softmax Pro software. The percentage cell growth inhibition was calculated by comparing fluorescence readings obtained from treated versus control cells, accounting for initial cell population (time zero).

[3] = system: Hsp70 species from SKBr3 cancer cell extracts; experiment: Hsp70 competition assay using YK55 beads, SKBr3 extracts; format: binding, human
Experimental: FIG. 14. YK5 has a higher affinity for tumor Hsp70s and selectively kills cancer cells. (a-c) Cells were treated with the indicated concentrations of inhibitors for the times presented, and metabolically viable cells by Alamar blue uptake as described in Methods (a). Molecular markers of apoptosis (PARP and caspase-3 cleavage) were analyzed in cells treated for 24 h with indicated concentrations of inhibitors, by western blotting (b, c). Morphology of cells treated for 24 h with vehicle or the indicated inhibitors was analyzed by light microscopy (c). (d) Extracts (500 μg) were incubated overnight with beads containing D-biotin (75 μM) or the indicated concentrations of YK55 added to 50 μl streptavidin beads. HS=heat shocked. (e) SKBr3 (200 μg) and MRC-5 (400 μg) extracts and recombinant human Hsp70 (2 μg) were incubated for 3 h with the indicated concentrations with YK5, followed by precipitation of Hsp70 complexes on YK55-beads (50 μM YK55 added to 50 μl streptavidin beads). Data obtained from three independent experiments were graphed (right). Points, mean; bars, s.d.
In a second experiment, the ability of soluble YK5 to compete YK55-binding to normal and cancer cell Hsp70 species were tested (FIG. 14e). […] Interaction of YK5 was even weaker with recombinant human Hsp70 (FIG. 14e).
Hsp70 Competition Assay Using the YK55 Beads. […]

With `C=CC(=O)Nc1cc(N)nc(Sc2c(OC)nc(N3CCN(C)CC3)nc2OC)n1` [YK5, N-(6-amino-2-(4,6-dimethoxy-2-(4-methylpiperazin-1-yl)pyrimidin-5-ylthio)pyrimidin-4-yl)acrylamide] the “DNA-binding efficacy of activated STAT1” value [1] was “increased its DNA-binding efficacy”, the IC50 [2] was 0.455 µM and the “concentration competing binding of YK55-beads to Hsp70” value [3] was “low micromolar concentrations”.
